This is an account of results in ChEMBL document CHEMBL6092153, “Research progress of BRD4 in head and neck squamous cell carcinoma: Therapeutic application of novel strategies and mechanisms” (Bioorg Med Chem, 2024).

Series [1] in a line: Antiproliferative activity against human HaCaT cells assessed as inhibition of cell growth incubated for 48 hrs by SRB assay. The format is toxicity, cell-based. In general terms: Sulforhodamine B stains cellular protein and so reports cell mass.
Series [2] concerns KYSE-510. Put plainly: Antiproliferative activity against human KYSE-510 cells assessed as reduction in cell growth incubated for 48 hrs by MTT assay. It counts as functional, cell-based. The conditions noted are these: KYSE-510, 48 h.
The subject of series [3] is KYSE-140. In words: Antiproliferative activity against human KYSE-140 cells assessed as inhibition of cell growth by MTT assay. It counts as functional, cell-based. (In general: Tetrazolium dyes change colour on reduction, which living cells bring about.)
Series [4] has as its system FaDu. Put plainly: Antiproliferative activity against human FaDu cells assessed as inhibition of cell growth measured after 72 hrs by CCK-8 assay. The format is functional, cell-based.
Series [5] concerns KYSE-150 cell line. In words: Antiproliferative activity against human KYSE-150 cell line assessed as inhibition of cell growth incubated for 48 hrs by CCK-8 assay. It counts as functional, cell-based. The settings on record: KYSE-150, 48 h.
Series [6] has as its system ECa-109 cell line. In words: Antiproliferative activity against human EC109 cells assessed as reduction in cell viability measured after 48 hrs by CCK-8 method. The settings on record: ECa-109, 48 h. The format is functional, cell-based.
Series [7] deals with KYSE-450. Put plainly: Antiproliferative activity against human KYSE-450 cells assessed as reduction in cell growth incubated for 48 hrs by MTT assay. It counts as functional, cell-based. The conditions noted are these: KYSE-450, 48 h.
Series [8] relates to TE-1. Put plainly: Antiproliferative activity against human TE-1 cells assessed as inhibition of cell growth by MTT assay. The format is functional, cell-based.
Series [9] relates to SAS. In words: Antiproliferative activity against human SAS cells assessed as reduction in cell viability by MTT assay. The format is functional, cell-based.
Series [10] can be described thus: Antiproliferative activity against human HOC313 cells assessed as reduction in cell viability by MTT assay. It counts as functional, cell-based.

Molecules are shown by their SMILES.

For orientation: IC50 means the concentration that inhibits the measured activity by half. Turning to `Cc1sc2c(c1C)C(c1ccc(Cl)cc1)=N[C@@H](CC(=O)OC(C)(C)C)c1nnc(C)n1-2`, the IC50 at 48 h in series [1] was 320 nM. For the same compound, the IC50 in [2] was determined as 121 nM; in series [3], 4160 nM; in series [4], 9640 nM; in series [5], 55400 nM; in [6], 100 nM; in series [7], 124 nM. Moreover, the IC50 in [8] was found to be 3990 nM; in series [9], 169 nM; in series [10], 288 nM.
